Source: PubChem BioAssay AID2060349 (Molecular Pharmacology Branch, DTP, NCI, 2025)
Where “and” joins values, the source holds several entries; their conditions need not be identical. Identical values can stand only once. Blank lines part the entries; values can stand above or below the compound they belong to.

Test system: 762968-020-R-J2-PDC spheroids viability
Test: Anticancer human tumor 762968-020-R-J2-PDC patient-derived colon carcinoma cell line growth inhibition [TAK]
Details: spheroids with HUVEC and MSC; for viability, T/C: stronger effect = lower value
Description: Combinatorial screen of targeted agents with TAK-243 and ipatasertib in multi-cell type tumor spheroids
A high-throughput screen of multi-cell type tumor spheroids was designed to identify active combinations of targeted small molecules and TAK-243 or ipatasertib. Complex spheroids include a stromal component modeled by human endothelial cells (HUVEC) and fibroblasts modeled by human mesenchymal stem cells (MSCs). The concentration ranges selected for each drug and investigational agent were based upon clinically achievable concentrations if the clinical Cmax of the agent was known.
Compounds. The drugs and investigational agents: TAK-243 (785004), ipatasertib (767898), everolimus (733504), selumetinib (741078), bortezomib (756655), trametinib (758246), ixazomib (758254), vemurafenib (761431), dabrafenib (764134), sapanisertib (764658), alpelisib (765974), and copanlisib (816437), were obtained from the National Cancer Institute (NCI) Developmental Therapeutics Program Chemical Repository. The FDA-approved anticancer drug set is available from the NCI Developmental Therapeutics Program. […] The stock solutions were prepared in dimethyl sulfoxide (DMSO, Sigma-Aldrich, St. Louis, MO, cat. D2650) at 800-fold the tested concentration and stored at -70 degrees C prior to their use. All drugs and investigational agents were tested over a range starting from a high concentration at or near the clinical Cmax and decreasing in half-log increments. If the clinical Cmax for an agent had not been determined, the highest concentration tested was 10 microM.
NCI60 Cell Culture. NCI60 cell lines were obtained from the NCI Developmental Therapeutics Program Tumor Repository. For each lot of cells, the Repository performed Applied Biosystems AmpFLSTR Identifiler testing with PCR amplification to confirm consistency with the published Identifier STR profile for each cell line. Cells were kept in continuous culture for no more than 20 passages. The optimal seeding densities for each of the cell lines at each time point assessed were determined prior to performing the concentration response studies. Briefly, the NCI60 human tumor lines were grown as monolayers in RPMI 1640 medium supplemented with 10% FBS and 2 mmol/L L-glutamine.
An additional 2 lines were from the NCI60 cell line panel including melanomas, MALME-3M and SK-MEL-2. Pooled donor human umbilical vein endothelial cells (HUVEC, Lonza, cat. CC-2519) and human mesenchymal stem cells (hMSC, Lonza, cat. PT-2501) were purchased from Lonza (Walkersville, MD).
PDMR cell lines were grown in complete medium (DC medium): Dulbecco's modified Eagle's medium (DMEM)/F12 supplemented with 5% fetal bovine serum (FBS), 2 mM L-glutamine, 100 U/mL penicillin and 100 µg/ml streptomycin, 0.4 µg/ml hydrocortisone, 10 ng/ml epidermal growth factor (EGF) recombinant human protein, 24 µg/mL adenine, and 0.1 mg/mL primocin. During culture from frozen stock vials, PDMR cells were cultured in the same medium containing 10 µM Y-27632 (see Table 3). The PDCs were cultured in complete DMEM/F12 media without 10 microM Y-27632 dihydrochloride for at least two passages prior to the screen. The pooled donor HUVEC and hMSC were cultured in endothelial cell growth medium 2 (PromoCell, Heidelberg, Germany, cat. C-22011) and mesenchymal stem cell growth medium 2 (PromoCell, cat. C-28009), respectively. For all experiments, HUVEC and hMSC were used at passages </=5.
For the pre-screen, cell seeding densities were determined from a titration spanning the range from 5,000 to 313 cells per well. The mct-spheroids including 60% malignant cells, 25% HUVEC and 15% MSC dispensed as a mixture into U-bottom Ultra-Low Attachment 384-well plates (Corning, NY)
High-throughput Drug Combination Screening.
Prior to their inoculation into 384-well plates, malignant cells, HUVEC, and hMSC were removed from T flasks using TrypLE express (Thermo Fisher Scientific, cat. 12605036) and harvested by centrifugation for 5 min at 233 x g. […]
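Further: spheroids exposed to drug for 7 days before readout.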
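Wherever viability, T/C is given: 100% = DMSO vehicle control wells.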

Structure (SMILES): CCCS(=O)(=O)Nc1ccc(F)c(C(=O)c2c[nH]c3ncc(-c4ccc(Cl)cc4)cc23)c1F
viability, T/C (compound 0.316 µM): 88.9% and 96.2%
viability, T/C (compound 1 µM): 87.8% and 96.9%
viability, T/C (compound 3.16 µM): 90.3% and 92.5%
viability, T/C (compound 10 µM): 73.6% and 62.2%
viability, T/C (compound 31.6 µM): 99.2% and 102%
viability, T/C (compound 100 µM): 90.3% and 105%
IC50 (curve of compound): > 100000 nM

Structure (SMILES): CC(=O)Nc1cccc(-n2c(=O)n(C3CC3)c(=O)c3c(Nc4ccc(I)cc4F)n(C)c(=O)c(C)c32)c1 + CC(C)NCC(C(=O)N1CCN(c2ncnc3c2C(C)CC3O)CC1)c1ccc(Cl)cc1
IC50 (curve of first compound, second compound 0.3 µM): 20.2 nM
IC50 (curve of first compound, second compound 0.949 µM): 20.8 nM
IC50 (curve of first compound, second compound 3 µM): 23.1 nM
IC50 (curve of first compound, second compound 9.49 µM): 17.7 nM
IC50 (curve of first compound, second compound 30 µM): 16.2 nM
viability, T/C (second compound 0.3 µM, first compound 94.9 pM): 98.7%
viability, T/C (second compound 0.3 µM, first compound 0.0003 µM): 104%
viability, T/C (second compound 0.3 µM, first compound 0.000949 µM): 91.6%
viability, T/C (second compound 0.3 µM, first compound 0.003 µM): 82.2%
viability, T/C (second compound 0.3 µM, first compound 0.00949 µM): 70.1%
viability, T/C (second compound 0.3 µM, first compound 0.03 µM): 39.7%
viability, T/C (second compound 0.949 µM, first compound 94.9 pM): 92.9%
viability, T/C (second compound 0.949 µM, first compound 0.0003 µM): 98.1%
viability, T/C (second compound 0.949 µM, first compound 0.000949 µM): 91.8%
viability, T/C (second compound 0.949 µM, first compound 0.003 µM): 96%
viability, T/C (second compound 0.949 µM, first compound 0.00949 µM): 74.5%
viability, T/C (second compound 0.949 µM, first compound 0.03 µM): 38.5%
viability, T/C (second compound 3 µM, first compound 94.9 pM): 101%
viability, T/C (second compound 3 µM, first compound 0.0003 µM): 103%
viability, T/C (second compound 3 µM, first compound 0.000949 µM): 97.4%
viability, T/C (second compound 3 µM, first compound 0.003 µM): 90.2%
viability, T/C (second compound 3 µM, first compound 0.00949 µM): 80.2%
viability, T/C (second compound 3 µM, first compound 0.03 µM): 41.1%
viability, T/C (second compound 9.49 µM, first compound 94.9 pM): 96.1%
viability, T/C (second compound 9.49 µM, first compound 0.0003 µM): 99.1%
viability, T/C (second compound 9.49 µM, first compound 0.000949 µM): 95.6%
viability, T/C (second compound 9.49 µM, first compound 0.003 µM): 80.6%
viability, T/C (second compound 9.49 µM, first compound 0.00949 µM): 67.3%
viability, T/C (second compound 9.49 µM, first compound 0.03 µM): 36.3%
viability, T/C (second compound 30 µM, first compound 94.9 pM): 90.3%
viability, T/C (second compound 30 µM, first compound 0.0003 µM): 87.7%
viability, T/C (second compound 30 µM, first compound 0.000949 µM): 80.3%
viability, T/C (second compound 30 µM, first compound 0.003 µM): 71.4%
viability, T/C (second compound 30 µM, first compound 0.00949 µM): 60.9%
viability, T/C (second compound 30 µM, first compound 0.03 µM): 38.8%

Second part, led by results:

IC50 (curve of compound): 2950 nM and 2240 nM
Structure (SMILES): Cn1cnc2c(F)c(Nc3ccc(Br)cc3Cl)c(C(=O)NOCCO)cc21
viability, T/C (compound 0.00949 µM): 103% and 98.9%
viability, T/C (compound 0.03 µM): 93.8% and 91.6%
viability, T/C (compound 0.0949 µM): 89% and 82%
viability, T/C (compound 0.3 µM): 83.4% and 78.8%
viability, T/C (compound 0.949 µM): 67.7% and 64.5%
viability, T/C (compound 3 µM): 49.1% and 44.4%

IC50 (curve of compound): > 10 nM
Structure (SMILES): CC(C)CC(NC(=O)C(Cc1ccccc1)NC(=O)c1cnccn1)B(O)O (configuration not stated)
viability, T/C (compound 31.6 pM): 94.6% and 101%
viability, T/C (compound 0.0001 µM): 102% and 101%
viability, T/C (compound 0.000316 µM): 108% and 96.2%
viability, T/C (compound 0.001 µM): 103% and 99.8%
viability, T/C (compound 0.00316 µM): 109% and 99%
viability, T/C (compound 0.01 µM): 90.6% and 93.7%

IC50 (compound alone, run of 02/28/2020): 17200 nM
IC50 (compound alone, run of 03/19/2020): > 30000 nM
Structure (SMILES): CC(C)NCC(C(=O)N1CCN(c2ncnc3c2C(C)CC3O)CC1)c1ccc(Cl)cc1 (configuration not stated)
viability, T/C (compound 0.3 µM): 103% [middle of 10 runs]
viability, T/C (compound 0.949 µM): 101% [middle of 10 runs]
viability, T/C (compound 3 µM): 104% [middle of 10 runs]
viability, T/C (compound 9.49 µM): 99.7% [middle of 10 runs]
